Experimental data: paper PMC12575728, “Galactose-modified small molecule modulator targets RORα to enhance circadian rhythm and alleviate periodontitis-associated alveolar bone loss” (Bone Research, 2025)
In brackets after ≈: the same amount, converted by molar mass.

What was measured:
[1] = system: periodontitis mice with circadian rhythm disorders; assay: Ligature-induced periodontitis in circadian rhythm disordered (jet lag) mice; format: in vivo; conditions: for periodontal tissue destruction (HE staining): compared to DMSO-treated controls; for rhythmic expression of circadian genes in periodontal tissue: jet lag mice, 10 mg/kg IP daily for three weeks; for alveolar bone resorption (Micro-CT): jet lag periodontitis mice, 10 mg/kg IP daily, compared to DMSO; for IL-10-positive cell populations / NF-κB pathway mediators Tnf-α and Il-6: periodontal tissue; for TRAP-positive cell numbers (osteoclastic activity): relative to DMSO-treated periodontitis controls
Source text: Periodontitis has the highest incidence rate among all oral diseases and is a major cause of adult tooth loss. […] It is also reported that the inflammatory signaling pathways in periodontal tissue is over activated in periodontitis mice with circadian rhythm disorder.[40] Given this, we have substantial grounds to hypothesize that the restoration of circadian rhythms could potentially ameliorate periodontitis. According to our assumption, periodontal inflammation in circadian rhythm-disordered mice is more critical than in control mice under L:D conditions, resulting in a more severe alveolar bone resorption. Administration of Gala-SR and SR1078 is expected to restore the circadian rhythm, thereby alleviating the inflammation and reducing the alveolar bone absorption (Fig. 6a). […] The mice were initially subjected to a one-week L:D feeding regimen, followed by exposure to disordered conditions for four weeks. At the beginning of the third week, the mice received intraperitoneal injections of Gala-SR or SR1078 (10 mg/kg) or the equivalent amount of DMSO utilized to dissolve these modulators every day for three consecutive weeks. Mice without any treatment and mice treated with DMSO but kept in L:D condition were also set for controls. By the end of the fourth week, a ligature-induced periodontitis model was established as previously described,[39] and samples at different time points were collected one week later for subsequent tests (Fig. 6b).
Alveolar bones were harvested from mice and fixed after removal of soft tissues. The bones were then scanned at a resolution of 9 μm using Micro-CT (SkyScan 1176, Bruker). Images were reconstructed and quantified using InstaRecon/NRecon Research Workplace software. Metrics such as bone volume/total volume, trabecular thickness, bone surface area/bone volume, trabecular number, trabecular separation, and buccal-lingual alveolar bone resorption were used to assess differences among the mice.
Male C57BL/6 mice,[40] 2 months old, were housed under disrupted conditions for 4 weeks. From the third week, they were intraperitoneally injected with Gala-SR, SR1078, or DMSO for 3 weeks. In the fifth week, general anesthesia was administered via intraperitoneal injection of pentobarbital sodium (40 mg/kg), and a ligature was placed around the cervix of the maxillary second molar to establish the murine periodontitis model. Collect gingival tissue and liver tissue every 6 h continuously for a duration of 48 h.

[2] = system: C57 mice; assay: Mouse locomotor assay; format: in vivo; conditions: 10 mg/kg IP at ZT11, D:D, compared to DMSO
Protocol: WT C57BL/6 J mice at the age of 2 months old were entrained under a 12-h /12-h […] at 24 °C for 2 weeks.[36] One week after mouse clock synchronization to the ambient light/dark cycle, SR1078, Gala-SR or dimethyl sulfoxide (DMSO) was dissolved in saline and intraperitoneally injected (10 mg/kg) into mice 1 h before light off (ZT11). […] SR1078, Gala-SR or DMSO was injected again 24 h later. After 2 weeks of continuous recording, locomotor activity was analyzed with ClockLab software (Actimetrics) following the procedures described previously34.

[3] = system: PER2::LUC mice; assay: Real-time bioluminescence recording of PER2::LUC mice; format: in vivo; conditions: 10 mg/kg IP at ZT0
Protocol: PER2::LUC mice at ages of 2–3 months-old were housed in 12:12 light-dark conditions for two weeks before the experiments.[33] Gala-SR and SR1078 (10 mg/kg) were dissolved in DMSO and I.P.injected into mouse at ZT0. After 1 h, D-luciferin was I.P. injected into mouse for another 0.5 h. Mice were then imaged on IVIS 673 Lumina III system and analyzed with live imaging software.

[4] = system: Per2-dLuc and Bmal1-dLuc U2OS cells; assay: Real-time bioluminescence monitoring of Per2-dLuc and Bmal1-dLuc U2OS cells; format: cell-based, human; conditions: for dose dependence of the enhancing effect on the amplitude of BMAL1: Bmal1-dLuc U2OS cells, 1-10 μM; for fluctuation degree (amplitude) of bioluminescence intensity / period or phase of the bioluminescence / overall bioluminescence levels: Bmal1-dLuc and Per2-dLuc U2OS cells, 2 μmol/L; for overall bioluminescence levels: vs DMSO
Protocol: Two clonal circadian reporter cell lines, Bmal1-dLuc and Per2-dLuc, were established and used in this study.[36] These two cell lines display robust cellular rhythmicity with near anti-phasic oscillation of bioluminescence expression. The lentivirus preparation, transduction of U2OS cells and selection of the knockout candidates with puromycin (at […] concentration) were performed using a previously published protoco.[37] LumiCycle (Actimetrics, Inc., Evanston, IL) detect for U2OS cells stably expressing Bmal1-dLuc and Per2-dLuc cells were seeded on an opaque 24-well plate. When the cells are full, which were treated with dexamethasone (DEX) (100 nmol/L final) for 2 h for resetting, 2 h later, the media of cells were replaced with bioluminescence recording media having DMEM culture medium (Gibco 21063029, 500 mL), 70 mL 12% FBS. Luciferin (0.1 mmol/L final) was added fresh to the bioluminescence media. Molecules at determined concentrations were supplied to the recording media (final DMSO concentration is 0.1%).

[5] = Kinetic solubility test; format: physicochemical; conditions: water, 25 °C, kinetic from dmso stock
Source text: Solubility(μmol/L)=Areafiltered×DFfiltered/Areastd×DFstd×[std]×DFstd

[6] = target: T1, RORγ (Homo sapiens, UniProt P51449); assay: Luciferase reporter assay (G6Pase or FGF21 promoter) in HEK293T cells cotransfected with RORγ; format: cell-based; conditions: 5 μmol/L; for luminescence intensity of G6Pase and FGF21 reporter genes: compared to DMSO
T1 construct: expressed in transfected cells; host or cells: HEK293T
T1 sequence (P51449 1-518): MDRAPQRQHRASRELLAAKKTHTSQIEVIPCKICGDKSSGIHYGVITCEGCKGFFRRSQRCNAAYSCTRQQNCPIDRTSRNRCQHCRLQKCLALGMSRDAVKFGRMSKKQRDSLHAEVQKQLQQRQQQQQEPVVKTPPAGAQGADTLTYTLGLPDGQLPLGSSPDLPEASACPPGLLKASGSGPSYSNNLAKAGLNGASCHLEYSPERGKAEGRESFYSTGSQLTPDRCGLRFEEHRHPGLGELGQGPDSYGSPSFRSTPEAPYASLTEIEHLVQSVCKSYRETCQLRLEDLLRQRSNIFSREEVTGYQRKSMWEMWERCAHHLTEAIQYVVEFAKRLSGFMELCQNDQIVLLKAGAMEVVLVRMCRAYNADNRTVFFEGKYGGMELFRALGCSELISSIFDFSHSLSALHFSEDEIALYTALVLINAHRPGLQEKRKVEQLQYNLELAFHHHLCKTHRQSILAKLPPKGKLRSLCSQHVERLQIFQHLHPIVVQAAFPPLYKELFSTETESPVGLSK
Source text: HEK293T cells were transfected with Lipofectamine 8000 (ThermoFisher) strictly following the manufacturer’s instructions. Cotransfected HEK293T cells with RORα or RORγ plasmid and a reporter consisting of the G6Pase or FGF21 promoters upstream of a luciferase reporter gene. […] The Lumicycle instrument detects luminescence and records the numerical value.

SMILES | periodontal tissue destruction (HE staining) [1] | rhythmic expression of circadian genes in periodontal tissue [1] | alveolar bone resorption (Micro-CT) [1] | IL-10-positive cell populations [1] | NF-κB pathway mediators Tnf-α and Il-6 [1] | TRAP-positive cell numbers (osteoclastic activity) [1] | activity rhythm (amplitude) and total activity [2] | liver luciferase signal [3] | dose dependence of the enhancing effect on the amplitude of BMAL1 [4] | fluctuation degree (amplitude) of bioluminescence intensity [4] | period or phase of the bioluminescence [4] | overall bioluminescence levels [4] | circadian rhythm amplitude, with β-glycosidase ([4]; Gala-SR + β-galactosidase (205 U/mg)) | circadian rhythm amplitude, with β-glycosidase inhibitor ([4]; Gala-SR + β-galactosidase inhibitor (26 mmol/L)) | solubility kinetic at 2 h [5] [µM] | difference between Gala-SR and SR1078 in RORγ reporter luminescence [6] | luminescence intensity of G6Pase and FGF21 reporter genes [6]
O=C(Nc1ccc(C(OCO[C@@H]2O[C@H](CO)[C@H](O)[C@H](O)[C@H]2O)(C(F)(F)F)C(F)(F)F)cc1)c1ccc(C(F)(F)F)cc1 [Gala-SR] | attenuated periodontal tissue destruction | restored their rhythmic expression | significantly reduced alveolar bone resorption | markedly increased | significantly downregulated | marked reduction | significantly increased | induced within 0.5 h of treatment | increases with the dose | further enhanced | neither SR1078 nor Gala-SR treatment induced any obvious alterations | superior efficacy than SR1078 | augmentation | suppression | 282 (≈ 176 µg/mL) | no significant difference | significantly enhanced the luminescence intensity
O=C(Nc1ccc(C(O)(C(F)(F)F)C(F)(F)F)cc1)c1ccc(C(F)(F)F)cc1 [SR1078, reference compound] | attenuated periodontal tissue destruction | restored their rhythmic expression | significantly reduced alveolar bone resorption | markedly increased | significantly downregulated | marked reduction | significantly increased | induced within 0.5 h of treatment | difficult to further promote its efficacy | significant augmentation | neither SR1078 nor Gala-SR treatment induced any obvious alterations | significantly elevated | – | – | 4.15 (≈ 1.79 µg/mL) | – | significantly enhanced the luminescence intensity
